Legend:
[1] = test system: apoptotic liver cells; assay: TUNEL assay for apoptotic liver cells after liver irradiation (Example 8); assay type: in vivo, mice; details: for numbers of TUNEL positive cells induced by irradiation: 15 Gy, relative to non-irradiated controls, irradiated vehicle 4.1
Method: Mice were pre-treated with various doses of UTL-5g (7.5, 15, 30, and 60 mg/kg, i.p.) or control vehicle at 1 hr prior to liver radiation with 15 Gy. […] Representative liver sections showing TUNEL positive cells (green) counter-stained with […] (4′-6-diamidino-2-phenylindole) for nuclei under fluorescent microscope (40×) (6B). RT: radiation treatment.
To further analyze the radioprotective effect of UTL-5g, we examined the number of liver apoptotic cells by in situ TUNEL staining At the end of treatment, liver tissue sections were prepared, fixed and stained with TUNEL staining for apoptotic cells. There were “spontaneous” apoptotic liver cells in control animals as detected by TUNEL staining (20/five random fields), approximately 0.2% of total liver cells. […] The radioprotective effect of UTL-5g was dose-dependent.

[2] = test system: TNF-α; assay: Liver TNF-α levels after liver irradiation (ELISA); assay type: in vivo, mice
Method: Mice were treated individually with 0.3 mL each of UTL-5g preparations i.p. 1 hr prior to liver irradiation at 15 Gy. Liver TNF-α levels were analyzed by standard ELISA methodology.
(§1) Based on the preliminary studies, UTL-5g was selected for dose-dependent radioprotective studies. In this study, animals were treated with increasing doses of UTL-5g (from 0 to 60 mg/kg) one hr prior to liver irradiation (15 Gy). Two hr after irradiation, animals were sacrificed and serum AST/ALT enzyme activities and liver TNF-α levels were determined. […] For animals pre-treated with UTL-5g at 30 mg/kg, AST/ALT activity levels were lowered from 135/29 to 89/22 Unit/L, and those pre-treated with UTL-5g at 60 mg/kg, AST/ALT levels were reduced from 135/29 to 74/19 Unit/L, respectively.

[3] = test system: C57BL/6 mice, liver irradiation; assay: Liver irradiation: serum AST and ALT activities (Examples 5-7); assay type: in vivo
Method: FIG. 8. Effect of UTL compounds on AST and ALT with and without radiation C57BL/6 male mice were treated with UTL-5b, -5d, and -5g each in 0.3 mL vehicle containing DMSO/(Cremophor:propylene glycol 4:6 v/v)/saline, 5/5/90 v/v by i.p. injection (30 mg/kg) 1 hr prior to liver irradiation with 15 Gy. Serum was obtained at 2 hr after irradiation and assayed for AST and ALT activities. Data are means±standard deviation (S.D.) * indicates p<0.05, n=4.
Mice were treated with various doses of UTL-5g (3.75, 7.5, 15, 30, and 60 mg/kg, i.p.) 1 hr prior to liver radiation with 15 Gy. Serum was obtained at 2 hr after irradiation and assayed for AST (4a) and ALT activities (4b).
FIG. 11. Radiation dose escalation and radioprotection by UTL-5 g Mice were pre-treated with UTL-5g (60mg/kg, i.p.) at 1 hr prior to radiation dose escalation (0, 5, 15, and 25 Gy). Serum was harvested at 2 hr after injections and was subjected to AST/ALT measurements as described in Methods. Results were compared to control mice received control vehicle. Data are means±standard deviation (* p<0.05, 2-tailed paired t-Test comparing treated and untreated groups, n=4).
In a preliminary study, three UTL compounds (5b, 5d and 5g) were examined for their radioprotective effect in C57BL/6 mice. One hr prior to liver irradiation (15 Gy), animals were treated with the test compounds by i.p. injection (30 mg/kg). Two hr later, the animals were sacrificed and serum AST and ALT enzyme activities were determined.
During the preliminary study, it was found unexpectedly that the vehicle used, DMSO/(Cremophor:propylene glycol […])/saline 5:5:90 v/v was associated with some liver toxicity as indicated by the moderate increase of serum AST and ALT activities in animals treated with vehicle alone.
as §1
Next, we investigated the radioprotective effect of UTL-5g with increased irradiation doses. In this study, animals were pre-treated with UTL-5g at 60 mg/kg and randomly divided into 4 groups. One hr later, they were subjected to liver irradiation at 0, 5, 15 and 25 Gy. Consistent with the previous study, pretreatment with UTL-5 g at 60 mg/kg was radioprotective against 15 Gy as evidenced by the reduction of serum AST activity (103.0 vs. 159.8 Unit/L in UTL-5g and in control vehicle groups, respectively) and ALT activity (17.8 vs. 32.3 Unit/L in UTL-5g and in control vehicle groups respectively) (FIG. 11).

Question: `Cc1cc(C(=O)Nc2ccc(Cl)cc2Cl)no1` [UTL-5g] was tested. Which “TUNEL positive cells, protective effect” value ([1]; UTL-5g 7.5 mg/kg i.p. 1 hr prior to 15 Gy, liver 2 hr after) did it give?
Answer: Its value is “no significant protective effect”.

Question: What about the “numbers of TUNEL positive cells induced by irradiation” value (from here on “numbers”) ([1]; UTL-5g 15 mg/kg) of the same compound?
Answer: The value was 3.3 fold.

Question: What about the “numbers” value ([1]; UTL-5g 30 mg/kg) of the same compound?
Answer: Its value is 1.8 fold.

Question: What about the “numbers” value ([1]; UTL-5g 60 mg/kg) of the same compound?
Answer: Its value is 1.4 fold.

Question: What about the “number of apoptotic cells in liver, non-irradiated animals” value ([1]; UTL-5g alone at 30 and 60 mg/kg, no irradiation) of the same compound?
Answer: Its value is “slightly increased the number of apoptotic cells”.

Question: What about the “liver TNF-α levels, reduction” value ([2]; UTL-5g 30 mg/kg i.p. 1 hr prior to liver irradiation 15 Gy) of the same compound?
Answer: Its value is 20%.

Question: What about the “liver TNF-α levels, reduction” value ([2]; UTL-5g 60 mg/kg i.p. 1 hr prior to liver irradiation 15 Gy) of the same compound?
Answer: Its value is 29%.

Question: What about the “serum AST and ALT levels induced by irradiation” value ([3]; 30 mg/kg i.p. 1 hr prior to liver irradiation 15 Gy, serum 2 hr after, C57BL/6 mice, preliminary study) of the same compound?
Answer: The value was “the most effective in lowering both AST and ALT enzyme activities”.

Question: And the “serum AST/ALT activities, dose dependence” value ([3]; UTL-5g 0 to 60 mg/kg i.p. 1 hr before liver irradiation 15 Gy, serum 2 hr after)?
Answer: The value was “significantly reduced serum AST/ALT activities in a drug dose-dependent manner”.

Question: And the “serum ALT activity” value ([3]; UTL-5g 30 mg/kg 1 hr before 15 Gy, irradiated vehicle 29 (Example 6))?
Answer: The value was 22 Unit/L.

Question: And the “serum AST activity” value ([3]; UTL-5g 30 mg/kg 1 hr before 15 Gy, irradiated vehicle 135 (Example 6))?
Answer: Its value is 89 Unit/L.

Question: And the “AST and ALT levels” value ([3]; UTL-5g 60 mg/kg 1 hr before 5 Gy)?
Answer: The value was “slightly but not significantly changed”.

Question: What about the “serum ALT activity” value ([3]; UTL-5g 60 mg/kg 1 hr before 15 Gy, control vehicle 32.3 (Example 7)) of the same compound?
Answer: Its value is 17.8 Unit/L.

Question: And the “serum AST activity” value ([3]; UTL-5g 60 mg/kg 1 hr before 15 Gy, control vehicle 159.8 (Example 7))?
Answer: Its value is 103.0 Unit/L.

Question: What about the “serum ALT activity” value ([3]; UTL-5g 60 mg/kg 1 hr before 15 Gy, irradiated vehicle 29 (Example 6)) of the same compound?
Answer: Its value is 19 Unit/L.

Question: What about the “serum AST activity” value ([3]; UTL-5g 60 mg/kg 1 hr before 15 Gy, irradiated vehicle 135 (Example 6)) of the same compound?
Answer: The value was 74 Unit/L.

Question: What about the “radioprotection (AST/ALT)” value ([3]; UTL-5g 60 mg/kg 1 hr before 25 Gy) of the same compound?
Answer: The value was “only moderate protection”.

Question: What about the “AST and ALT enzyme activities without irradiation” value ([3]; UTL-5g 60 mg/kg alone, animals without irradiation) of the same compound?
Answer: The value was “slightly increased”.

Reference: US20120082736A1, “Small-molecule TNF modulator to reduce the side effects of chemotherapy and radiotherapy” (GeneBlue Corporation, priority 2010, published 2012)
